According to ChEMBL document CHEMBL1201862, “PubChem BioAssay data set” (2004):
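Protocol summary: plate cells (96-well), add compound at 5 concentrations, incubate 48 h, interpolate endpoints linearly. At the GI50, growth is halved.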 The source made the active and inactive calls. Cut-off read from the data, not from the text of the source: active = GI50 up to about 1.1 µM and inactive = higher.

How the values were obtained:
Test in all cases: NCI-60 cell line screen, 48 h
IGROV-1 = tested on: IGROV-1
UACC-62 = tested on: UACC-62
HOP-62 = tested on: HOP-62
OVCAR-8 = tested on: OVCAR-8
MDA-N = tested on: MDA-N
SNB-19 = tested on: SNB-19
OVCAR-4 = tested on: OVCAR-4
MDA-MB-231 = tested on: MDA-MB-231
HCT-116 = tested on: HCT-116
SK-MEL-2 = tested on: SK-MEL-2
RXF 393 = tested on: RXF 393
U-251 = tested on: U-251
SK-MEL-28 = tested on: SK-MEL-28
HT-29 = tested on: HT-29
Hs-578T = tested on: Hs-578T
OVCAR-5 = tested on: OVCAR-5
T47D = tested on: T47D
SNB-75 = tested on: SNB-75
TK-10 = tested on: TK-10
SK-MEL-5 = tested on: SK-MEL-5

Measured: GI50

CO/C(N)=C(C#N)/N=C/c1cccs1
inactive: IGROV-1 77.6 µM | UACC-62 35.5 µM | HOP-62 98.4 µM | OVCAR-8 > 100 µM | MDA-N 27.4 µM | SNB-19 > 100 µM | OVCAR-4 > 100 µM | MDA-MB-231 > 100 µM | HCT-116 42.2 µM | SK-MEL-2 > 100 µM | RXF 393 > 100 µM | U-251 74 µM | SK-MEL-28 45.4 µM | HT-29 25.9 µM | Hs-578T 66.2 µM | OVCAR-5 > 100 µM | T47D 76.6 µM | SNB-75 73.5 µM | TK-10 > 100 µM | SK-MEL-5 39.4 µM

CCOC(=O)OC1(c2ccccc2)CCN(C)CC1
inactive: IGROV-1 > 100 µM | UACC-62 > 100 µM | HOP-62 > 100 µM | OVCAR-8 > 100 µM | MDA-N > 100 µM | SNB-19 > 100 µM | OVCAR-4 > 100 µM | MDA-MB-231 > 100 µM | HCT-116 > 100 µM | SK-MEL-2 > 100 µM | RXF 393 > 100 µM | U-251 > 100 µM | SK-MEL-28 > 100 µM | HT-29 > 100 µM | Hs-578T > 100 µM | OVCAR-5 > 100 µM | T47D > 100 µM | SNB-75 > 100 µM | TK-10 > 100 µM | SK-MEL-5 > 100 µM

CC(=O)Nc1ccc2c(c1)nc1c3ccccc3ccn21
inactive: IGROV-1 > 100 µM | UACC-62 > 100 µM | HOP-62 50.6 µM | OVCAR-8 > 100 µM | MDA-N > 100 µM | SNB-19 > 100 µM | OVCAR-4 > 100 µM | MDA-MB-231 > 100 µM | HCT-116 55.6 µM | SK-MEL-2 > 100 µM | RXF 393 99.1 µM | U-251 > 100 µM | SK-MEL-28 > 100 µM | HT-29 > 100 µM | Hs-578T > 100 µM | OVCAR-5 > 100 µM | T47D > 100 µM | SNB-75 71.9 µM | TK-10 > 100 µM | SK-MEL-5 > 100 µM

O=S(=O)(O)c1ccc2c(/N=N/c3ccc(Cl)cc3)c(O)ccc2c1
inactive: IGROV-1 > 100 µM | UACC-62 > 100 µM | HOP-62 > 100 µM | OVCAR-8 > 100 µM | MDA-N > 100 µM | SNB-19 > 100 µM | OVCAR-4 > 100 µM | MDA-MB-231 > 100 µM | HCT-116 > 100 µM | SK-MEL-2 > 100 µM | RXF 393 > 100 µM | U-251 > 100 µM | SK-MEL-28 > 100 µM | HT-29 > 100 µM | Hs-578T > 100 µM | OVCAR-5 > 100 µM | T47D 89.3 µM | SNB-75 > 100 µM | TK-10 > 100 µM | SK-MEL-5 > 100 µM

OC(c1cc(-c2ccccc2)nc2c1ccc1ccccc12)C1CCCCN1 (stereo not given)
inactive: IGROV-1 1.68 µM | UACC-62 1.85 µM | HOP-62 1.67 µM | OVCAR-8 1.96 µM | MDA-N 1.64 µM | SNB-19 1.82 µM | OVCAR-4 1.96 µM | MDA-MB-231 1.79 µM | HCT-116 1.63 µM | SK-MEL-2 1.79 µM | RXF 393 1.81 µM | U-251 1.76 µM | SK-MEL-28 1.81 µM | HT-29 1.68 µM | Hs-578T 1.51 µM | OVCAR-5 1.6 µM | T47D 1.93 µM | SNB-75 1.98 µM | TK-10 1.75 µM | SK-MEL-5 2.8 µM
